Experimental data from patent publication US6455045B1, “Immunogenic compounds with in particular an anti-cytokine effect, preparation process, pharmaceutical compositions and kits containing them” (priority 1991, dated 2002).
No end group written: not given here.

Tests used:
[1] = tested on: T-cells originating from fresh human blood; format: cell-based
[2] = tested on: HIV-1 env bands (gp160, gp120, gp41); experiment: Western blot (Abott HIV-1 detection kit) with serums of peptide-immunized mice; format: in vivo; settings: 15 μg per injection days 0, 30, 60, day 70
Description: Four batches of five mice were chosen to receive the peptides SI Nos. 1, 2, 6, 10 respectively.
The peptides prepared as described in Example 2 were injected on days 0, 30, 60 in a quantity of 15 μg per injection. On day 70 the mice were sacrificed, their T-cells were isolated (spleen and ganglia) and their serum was stored.

## Cys-Gln-His-Leu-Leu-Gln-Leu-Thr-Val-Trp-Gly-Ile-Lys-Glu or Gln-Leu-Glu Gln-Ala-Arg-Ile-Leu-Ala-Val-Glu-Arg-Tyr-Leu-Lys-Asp-Gln [SI No. 5]
[1]
  activation of T-cells (incorporation of labelled thymidine): low activation according to a dose-effect curve

## SI No. 1: peptide SI No. 1, a or b form not stated; prepared in proteosomes as in Example 2 (probably 1b); HIV-1 gag P7 region (IARNCRAPRKKG)
[2]
  Western blot bands showing a signal: gp60 and gp120 bands showed a signal

## Cys-Ser-Ala-Thr-Glu-Lys-Leu-Trp-Val-Thr-Val-Tyr-Tyr [SI No. 7]
[1]
  activation of T-cells (incorporation of labelled thymidine): low activation according to a dose-effect curve

## QLLLNGSLAEEE [SI No. 10]
[1]
  activation of T-cells (incorporation of labelled thymidine): low activation according to a dose-effect curve
[2]
  Western blot bands showing a signal: gp60 and gp120 bands showed a signal

## His-Glu-Asp-Ile-Ile-Ser-Leu-Trp-Asp-Gln-Ser-Leu-Lys [SI No. 6]
[1]
  activation of T-cells (incorporation of labelled thymidine): low activation according to a dose-effect curve
[2]
  Western blot bands showing a signal: gp60 and gp120 bands showed a signal

## SI No. 2: peptide SI No. 2, a or b form not stated; prepared in proteosomes as in Example 2 (probably 2b); HIV-1 gp41 region 735-753 (DRPEGIEEEGGERDRDRS)
[2]
  Western blot bands showing a signal: gp160 and gp41
